Key:
[1] = test system: HeLaSS6 cells transfected with subgenomic HIV-1 expression vector pNLenv1; test: Time kinetics of Gag processing and virus release, Western blot of cell and virus fractions; type: cell-based; settings: 100 nM 17-AAG vs inhibitor-free medium
Method: Time kinetics were studied for biochemical analysis of the influence of 17-AAG on the kinetics of Gag processing and virus release. The experimental details of cultivation, transfection, media exchange and time kinetics are reported in Example 4a/b. For this purpose there were used cultures of HeLaSS6 cells that had been transfected with pNLenv1 (Schubert et al., 1995). Following incubation in 17-AAG-containing medium (100 nM 17-AAG) or inhibitor-free medium, the kinetic studies were begun after distinct washing steps and aliquoting of the preparations. Aliquot cell cultures were taken at each time and separated into cell, virus and cell-culture supernatant fractions by centrifugation. The HIV proteins were separated by SDS PAGE, transferred onto PVDF membranes and then made visible on x-ray films by antibody-mediated chemiluminescence.
HeLa cells (ATCC CCL2) were cultivated in Dulbeccos' modified Eagle's medium (DMEM) with 10% fetal calf serum, 2 mM L-glutamine, 100 U/mL penicillin and 100 μg/mL streptomycin.
HeLa cells (ATCC CCL2) were transfected using a mixture of pNLΔenv and lipofectamine2000 in OPTI-MEM. A media exchange was undertaken after 8 hours of incubation at 37° C. and 5% CO2. […] The HIV-specific and cell-specific proteins were detected via specific antibodies (to Hsp70; Hsp90; p24; PR55; β-actin). […]

X4-trophic HI viruses = test: HLAC model (human tonsil cells) infected with X4-trophic HI viruses, RT assay of supernatants; type: cell-based, HIV-1; settings: for virus replication of X4-trophic HI viruses (RT data): tonsil A; for X4-trophic HIV replication (RT data): tonsil B
Method: Human tonsils were macerated and transferred into 96-well plates. After one day of incubation, the cells were infected with X4-trophic HI viruses, mixed with the corresponding inhibitors and washed on the following day. These and also the subsequent steps are described in detail under Example 4c-d. At each kinetic point, 150 μL of medium was removed and stored at −80° C. until measurement at RT. The medium that was again added contained the inhibitor concentrations necessary for the special preparation.
After 15 days, the proportion of functional HI viruses formed was determined by means of RT assays (see Example 4e) of the stored supernatants.
Tonsil cells were cultivated in RPMI 1640 with 15% (V/V) fetal calf serum, 2 mM L-glutamine, 100 U/mL penicillin, 100 μg/mL streptomycin, 2.5 μg/mL Fungizone, 1 mM sodium pyrovate, 1% MEM non-essential amino acid solution and 50 μg/mL gentanamycin (“tonsil medium”).
To produce virus preparations, plasmid DNA of molecular HIV-1 DNA was transfected into HeLa cells using the calcium phosphate precipitation method. For this purpose, confluent cultures of HeLa cells (5×10^6 cells) were incubated with 25 μg of plasmid DNA in calcium phosphate crystals, produced according to a method of Graham and van der Eb (1973), then subjected to glycerol shock according to Gorman et al. (1982). To obtain concentrated virus preparations, the cell culture supernatants were harvested two days after transfection. Thereafter the cells as well as their constituents were separated by centrifugation (1000 g, 5 minutes, 4° C.) and filtration (0.45 μm pore size). Virus particles were pelleted by ultracentrifugation (Beckman SW55 rotor, 1.5 hours, 35,000 rpm, 10° C.) and then resuspended in 1 mL of DMEM medium. The virus preparations were sterilized by filtration (0.45 μm pore size) and were frozen in portions (−80° C.). Individual virus preparations were standardized by determination of the reverse transcriptase activity, specifically on the basis of an already described test (Willey et al., 1988), using [32P]-TTP incorporation into an oligo(dT)-poly(A) template.
The tonsil tissue was washed in PBS, then cleaned of blood clots and cut into pieces measuring 1 to 2 mm^2 with the scalpel. Individual cells were obtained by mechanical pressing through a filter gauze. Following centrifugation of the isolated cells (5 minutes, 1200 rpm), the cells were counted, seeded into 96-well plates and incubated overnight at 37° C. and 5% CO2. Infection of the cells was achieved by addition of 10 ng of X4-trophic HIV stocks and simultaneous application of the corresponding inhibitor concentrations. On the following day, 50 μL of supernatant was withdrawn (“1 dpi”) and stored at −80° C. Thereupon the cells were centrifuged (5 minutes, 1200 rpm) and a further 50 μL of supernatant was withdrawn. Following resuspension of the cells in 100 μL of tonsil medium, this washing step was repeated two times. Tonsil medium with the corresponding inhibitor concentrations was added and then the cells were re-incubated at 37° C. and 5% CO2. On days 3, 6, 9 and 12, 150 μL of medium was withdrawn and stored at −80° C., and 150 μL of medium with the corresponding inhibitor concentrations was added. On day 15, only 150 μL of supernatant was removed and stored at −80° C., after which the cells were discarded.
The tonsil supernatants stored at −80° C. were assayed by determination of the reverse transcriptase activity, specifically on the basis of an already described test (Willey et al., 1988), using [32P]-TTP incorporation into an oligo(dT)-poly(A) template.

SMILES | Gag processing in the virus fraction [1] | Hsp70 expression in the cell fraction [1] | virus replication of X4-trophic HI viruses in the HLAC model (X4-trophic HI viruses; summary statement of Example 3, RT assays after 15 days) | virus replication of X4-trophic HI viruses (RT data) (X4-trophic HI viruses; 10 nM 17-AAG alone) | virus replication of X4-trophic HI viruses (RT data) (X4-trophic HI viruses; single inhibitor at 1 nM) | X4-trophic HIV replication (RT data) (X4-trophic HI viruses; 10 nM 17-AAG alone) | X4-trophic HIV replication (RT data) (X4-trophic HI viruses; single inhibitor at 1 nM)
C=CCNC1=C2C[C@@H](C)C[C@H](OC)[C@H](O)[C@@H](C)/C=C(\C)[C@H](OC(N)=O)[C@@H](OC)/C=C\C=C(/C)C(=O)NC(=CC1=O)C2=O [17-AAG] | reduced Gag processing | intensified Hsp70 expression | inhibits the virus replication | not clearly influenced | not clearly influenced | distinct reduction of virus replication | did not exhibit any influence
CC(C)C[C@H](NC(=O)[C@H](Cc1ccccc1)NC(=O)c1cnccn1)B(O)O [PS341] |  |  |  |  | not clearly influenced |  | did not exhibit any influence

— patent US20090156473A1, “PHARMACEUTICAL COMPOSITION FOR THE TREATMENT OF VIRAL INFECTIONS AND/OR TUMOR DISEASES BY INHIBITING PROTEIN FOLDING AND PROTEIN BREAKDOWN” (Virologik GmbH, priority 2006, published 2009)
